Results published in ChEMBL document CHEMBL1201862, “PubChem BioAssay data set” (2004).
Calls of active or inactive are those of the source.

What was measured:
Streptococcus = assay: Group A Streptococcus viability loss, dose response, counter-screen for streptokinase expression inhibitor project, luminescence, BacTiterGlo (AID 1915); format: functional, organism-based;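 further: potency for reduction of bacterial viability or growth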
cells [1] = format: functional
[2] = HepG2 cell cytotoxicity, dose response, cytotoxicity control for non-replicating M. tuberculosis project (AID 489018); format: functional; conditions: Mycobacterium tuberculosis
fMet-Leu-Phe receptor = molecular target: T1, fMet-Leu-Phe receptor (Homo sapiens, UniProt P21462); assay: FPR ligands, dose response (AID 519); format: functional
T1 sequence (P21462 whole entry): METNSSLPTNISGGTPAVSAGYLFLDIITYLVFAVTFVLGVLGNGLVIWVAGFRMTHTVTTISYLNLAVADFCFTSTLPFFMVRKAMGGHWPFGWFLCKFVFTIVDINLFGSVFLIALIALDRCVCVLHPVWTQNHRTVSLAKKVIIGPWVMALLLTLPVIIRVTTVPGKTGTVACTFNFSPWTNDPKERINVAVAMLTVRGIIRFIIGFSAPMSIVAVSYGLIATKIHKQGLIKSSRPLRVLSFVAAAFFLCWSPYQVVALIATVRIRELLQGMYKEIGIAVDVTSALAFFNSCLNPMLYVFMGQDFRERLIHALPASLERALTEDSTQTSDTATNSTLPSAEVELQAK

[3] = THP-1 cell cytotoxicity, dose response, cytotoxicity control for non-replicating M. tuberculosis project (AID 489025); format: functional
[4] = Vero E6 cell cytotoxicity, dose response, cytotoxicity control for non-replicating M. tuberculosis project, secondary assay (AID 492998); format: functional, VeroE6; conditions: Vero C1008
[5] = tested on: Streptococcus sp. 'group A'; assay: growth inhibition of control SK(-) GAS strain, dose response, counter-screen for streptokinase expression inhibitor project, luminescence, kanamycin, BacTiterGlo, confirmation (AID 1900); format: functional, organism-based
Hexokinase = Hexokinase (Trypanosoma brucei, UniProt Q38C41); assay: Confirmation assay for inhibitors of Trypanosoma brucei hexokinase 1-Analogue-first series. [Related pubchem assays (depositor defined):AID1430, AID1632, AID2516, AID2560, AID2579, AID2600, AID449725, AID492951]; format: functional
Chain of Hexokinase (Q38C41 whole entry): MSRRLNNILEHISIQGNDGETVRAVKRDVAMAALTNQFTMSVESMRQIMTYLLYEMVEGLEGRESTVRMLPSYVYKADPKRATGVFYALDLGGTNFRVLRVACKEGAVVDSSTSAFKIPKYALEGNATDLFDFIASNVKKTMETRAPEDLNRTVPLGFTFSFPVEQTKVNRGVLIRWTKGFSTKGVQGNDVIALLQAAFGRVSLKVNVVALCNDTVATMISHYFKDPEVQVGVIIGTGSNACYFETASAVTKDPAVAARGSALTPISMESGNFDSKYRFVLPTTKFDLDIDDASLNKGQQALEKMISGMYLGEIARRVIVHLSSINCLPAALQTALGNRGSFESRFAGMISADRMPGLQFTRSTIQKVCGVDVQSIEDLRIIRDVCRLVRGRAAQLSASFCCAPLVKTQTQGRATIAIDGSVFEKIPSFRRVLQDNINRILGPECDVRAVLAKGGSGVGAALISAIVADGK

CAAX prenyl protease 2 = CAAX prenyl protease 2 (Saccharomyces cerevisiae S288c, UniProt Q03530); format: biochemical
[6] = molecular target: T2, Voltage-gated N-type calcium channel alpha-1B subunit/Amyloid beta A4 precursor protein-binding family A member 1 (Homo sapiens, UniProt Q00975+Q02410); format: protein assay
T2 sequence (Q00975 whole entry): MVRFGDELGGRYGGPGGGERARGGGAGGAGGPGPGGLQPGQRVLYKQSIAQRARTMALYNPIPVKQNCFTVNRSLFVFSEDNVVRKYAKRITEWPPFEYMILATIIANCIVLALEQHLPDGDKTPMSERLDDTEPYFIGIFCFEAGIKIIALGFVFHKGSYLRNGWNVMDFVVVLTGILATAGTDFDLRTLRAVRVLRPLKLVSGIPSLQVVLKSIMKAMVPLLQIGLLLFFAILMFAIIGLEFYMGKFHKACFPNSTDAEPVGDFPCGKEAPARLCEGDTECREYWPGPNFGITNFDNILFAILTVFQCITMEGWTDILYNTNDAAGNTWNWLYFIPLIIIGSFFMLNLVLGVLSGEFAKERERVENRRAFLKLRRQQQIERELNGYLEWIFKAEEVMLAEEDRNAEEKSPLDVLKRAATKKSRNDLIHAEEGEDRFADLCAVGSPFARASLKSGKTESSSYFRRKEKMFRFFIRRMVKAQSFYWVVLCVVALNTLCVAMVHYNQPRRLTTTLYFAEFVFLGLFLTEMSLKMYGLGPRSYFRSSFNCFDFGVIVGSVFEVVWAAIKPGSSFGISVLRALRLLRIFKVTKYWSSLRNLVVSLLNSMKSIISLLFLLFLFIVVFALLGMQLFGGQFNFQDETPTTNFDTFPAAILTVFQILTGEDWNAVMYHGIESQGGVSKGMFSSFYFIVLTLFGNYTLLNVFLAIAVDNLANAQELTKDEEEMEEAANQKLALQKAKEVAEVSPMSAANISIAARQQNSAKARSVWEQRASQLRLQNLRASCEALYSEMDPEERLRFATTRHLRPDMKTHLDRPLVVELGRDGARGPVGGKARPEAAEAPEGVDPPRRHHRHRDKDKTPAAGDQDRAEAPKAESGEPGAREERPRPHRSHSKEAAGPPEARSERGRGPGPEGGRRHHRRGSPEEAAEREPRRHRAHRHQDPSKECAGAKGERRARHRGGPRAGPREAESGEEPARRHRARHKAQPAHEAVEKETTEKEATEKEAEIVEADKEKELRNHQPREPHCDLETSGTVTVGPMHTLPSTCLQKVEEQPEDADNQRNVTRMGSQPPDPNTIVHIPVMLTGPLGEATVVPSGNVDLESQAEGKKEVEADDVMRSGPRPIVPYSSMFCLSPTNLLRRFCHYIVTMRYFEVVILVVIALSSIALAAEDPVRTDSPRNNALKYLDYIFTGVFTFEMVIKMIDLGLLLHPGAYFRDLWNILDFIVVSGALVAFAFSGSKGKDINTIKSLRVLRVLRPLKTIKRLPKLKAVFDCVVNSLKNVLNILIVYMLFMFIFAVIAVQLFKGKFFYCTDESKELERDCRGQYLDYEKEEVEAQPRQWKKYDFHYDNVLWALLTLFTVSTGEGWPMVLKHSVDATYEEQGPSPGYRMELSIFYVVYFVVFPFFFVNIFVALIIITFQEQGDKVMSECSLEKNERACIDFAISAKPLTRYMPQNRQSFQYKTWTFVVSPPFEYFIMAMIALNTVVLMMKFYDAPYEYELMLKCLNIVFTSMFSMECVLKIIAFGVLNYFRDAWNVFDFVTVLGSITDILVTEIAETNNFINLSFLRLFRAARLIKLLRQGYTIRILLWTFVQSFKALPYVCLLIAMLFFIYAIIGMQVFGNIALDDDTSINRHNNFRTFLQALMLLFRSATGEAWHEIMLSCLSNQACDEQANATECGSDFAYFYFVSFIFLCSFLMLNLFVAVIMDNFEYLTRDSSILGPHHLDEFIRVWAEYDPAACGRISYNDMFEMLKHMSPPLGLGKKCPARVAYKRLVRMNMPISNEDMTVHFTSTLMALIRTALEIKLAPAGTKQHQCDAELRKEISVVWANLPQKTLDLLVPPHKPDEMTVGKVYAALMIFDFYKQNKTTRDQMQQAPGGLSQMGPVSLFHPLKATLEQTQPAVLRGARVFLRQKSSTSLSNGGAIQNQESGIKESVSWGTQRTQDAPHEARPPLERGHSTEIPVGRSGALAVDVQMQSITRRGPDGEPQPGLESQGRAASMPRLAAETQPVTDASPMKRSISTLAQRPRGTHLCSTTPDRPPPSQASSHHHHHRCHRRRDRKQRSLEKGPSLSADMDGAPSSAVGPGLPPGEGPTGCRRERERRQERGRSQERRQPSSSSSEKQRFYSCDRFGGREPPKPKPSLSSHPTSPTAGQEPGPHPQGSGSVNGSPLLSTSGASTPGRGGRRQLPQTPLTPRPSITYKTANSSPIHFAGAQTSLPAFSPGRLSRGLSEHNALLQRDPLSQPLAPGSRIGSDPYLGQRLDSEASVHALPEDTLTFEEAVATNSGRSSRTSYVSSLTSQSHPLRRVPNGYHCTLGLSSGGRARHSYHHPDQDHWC
T2 sequence (Q02410 whole entry): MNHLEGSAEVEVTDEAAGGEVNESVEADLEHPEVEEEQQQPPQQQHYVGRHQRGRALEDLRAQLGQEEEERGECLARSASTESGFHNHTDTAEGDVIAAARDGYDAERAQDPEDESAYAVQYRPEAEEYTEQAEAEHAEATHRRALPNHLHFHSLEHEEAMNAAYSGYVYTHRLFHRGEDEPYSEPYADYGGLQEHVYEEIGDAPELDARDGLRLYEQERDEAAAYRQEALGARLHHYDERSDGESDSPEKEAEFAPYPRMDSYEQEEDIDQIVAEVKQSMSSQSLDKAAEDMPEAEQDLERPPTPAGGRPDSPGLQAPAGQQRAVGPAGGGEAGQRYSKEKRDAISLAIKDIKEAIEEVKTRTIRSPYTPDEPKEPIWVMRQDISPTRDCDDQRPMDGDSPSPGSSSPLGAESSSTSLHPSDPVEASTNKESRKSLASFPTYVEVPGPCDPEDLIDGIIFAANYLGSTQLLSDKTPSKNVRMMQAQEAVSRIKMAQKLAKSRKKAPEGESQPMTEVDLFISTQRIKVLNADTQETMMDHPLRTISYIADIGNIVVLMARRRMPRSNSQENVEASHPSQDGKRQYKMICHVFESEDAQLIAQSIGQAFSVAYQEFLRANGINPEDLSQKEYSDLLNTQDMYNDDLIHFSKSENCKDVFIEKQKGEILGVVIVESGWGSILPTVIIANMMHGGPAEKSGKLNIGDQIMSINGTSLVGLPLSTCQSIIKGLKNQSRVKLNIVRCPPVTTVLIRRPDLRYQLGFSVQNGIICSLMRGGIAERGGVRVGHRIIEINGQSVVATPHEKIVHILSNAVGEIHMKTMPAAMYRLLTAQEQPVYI

[7] = molecular target: T2, Voltage-gated N-type calcium channel alpha-1B subunit/Amyloid beta A4 precursor protein-binding family A member 1; format: protein assay; remark: listed apart in the source
[8] = molecular target: T3, Dual specificity protein phosphatase 3 (Homo sapiens, UniProt P51452); assay: VHR1 phosphatase inhibitors, biochemical (AID 1878)
T3 sequence (P51452 whole entry): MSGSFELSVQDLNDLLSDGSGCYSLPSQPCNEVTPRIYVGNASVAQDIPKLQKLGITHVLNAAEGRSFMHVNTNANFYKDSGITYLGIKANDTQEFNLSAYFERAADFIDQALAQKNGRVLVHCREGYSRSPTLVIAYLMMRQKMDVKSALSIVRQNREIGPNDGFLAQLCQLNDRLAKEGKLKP

[9] = molecular target: T4, Polyadenylate-binding protein 1 (Homo sapiens, UniProt P11940); assay: PABP1 MLLE–PAM2 binding inhibitor potency, dose response, biochemical, fluorescence polarization, FITC-PAM2 peptide (AID 602259); format: functional; conditions: read-out: IC50_Mean
T4 sequence (P11940 whole entry): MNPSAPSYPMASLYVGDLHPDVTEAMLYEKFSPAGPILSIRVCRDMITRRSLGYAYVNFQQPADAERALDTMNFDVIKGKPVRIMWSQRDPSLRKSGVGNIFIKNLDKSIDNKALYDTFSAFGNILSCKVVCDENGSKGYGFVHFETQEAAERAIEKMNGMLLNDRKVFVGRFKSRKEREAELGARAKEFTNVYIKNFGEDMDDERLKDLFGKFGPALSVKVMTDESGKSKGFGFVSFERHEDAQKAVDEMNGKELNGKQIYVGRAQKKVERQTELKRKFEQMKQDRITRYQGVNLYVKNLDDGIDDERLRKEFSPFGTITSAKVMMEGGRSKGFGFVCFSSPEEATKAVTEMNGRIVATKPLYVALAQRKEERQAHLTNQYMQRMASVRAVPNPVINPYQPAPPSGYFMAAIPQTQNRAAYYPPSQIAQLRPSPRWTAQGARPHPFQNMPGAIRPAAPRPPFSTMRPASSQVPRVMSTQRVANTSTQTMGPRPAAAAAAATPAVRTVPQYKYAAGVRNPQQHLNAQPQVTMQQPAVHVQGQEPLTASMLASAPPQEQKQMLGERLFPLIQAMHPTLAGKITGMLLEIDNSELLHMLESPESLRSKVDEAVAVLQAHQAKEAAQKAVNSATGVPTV

[10] = molecular target: Induced myeloid leukemia cell differentiation protein Mcl-1 (Homo sapiens, UniProt Q07820); format: functional
[11] = molecular target: Eukaryotic translation initiation factor 4E (Mus musculus, UniProt P63073); assay: eIF4E–eIF4G protein interaction inhibitors, dose response, biochemical, TR-FRET (AID 855); format: functional;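 further: potency for disrupting eIF4E binding to eIF4GI seen as loss of FRET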
Chain of Eukaryotic translation initiation factor 4E (P63073 whole entry): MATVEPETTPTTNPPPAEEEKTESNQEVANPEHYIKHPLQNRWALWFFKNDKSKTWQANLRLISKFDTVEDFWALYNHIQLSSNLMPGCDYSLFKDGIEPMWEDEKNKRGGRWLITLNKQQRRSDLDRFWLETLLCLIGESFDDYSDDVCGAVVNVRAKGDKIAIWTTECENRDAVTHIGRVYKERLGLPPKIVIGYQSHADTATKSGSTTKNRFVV

[12] = molecular target: T3, Dual specificity protein phosphatase 3; assay: VHR1 phosphatase inhibitors, primary screen, biochemical, absorbance, uHTS (AID 1654)
[13] = molecular target: T4, Polyadenylate-binding protein 1; assay: PABP1 MLLE–PAM2 interaction inhibitors, dose response, miRNA deadenylation inhibitor project, biochemical, fluorescence polarization, Cy5-PAM2 peptide, secondary (AID 602260); format: functional; conditions: read-out: IC50_Mean
[14] = molecular target: T5, Dual specificity protein phosphatase 6 (Rattus norvegicus, UniProt Q64346); assay: MKP-3 phosphatase inhibitors, primary screen, biochemical, rat enzyme, in vitro (AID 425)
T5 sequence (Q64346 whole entry): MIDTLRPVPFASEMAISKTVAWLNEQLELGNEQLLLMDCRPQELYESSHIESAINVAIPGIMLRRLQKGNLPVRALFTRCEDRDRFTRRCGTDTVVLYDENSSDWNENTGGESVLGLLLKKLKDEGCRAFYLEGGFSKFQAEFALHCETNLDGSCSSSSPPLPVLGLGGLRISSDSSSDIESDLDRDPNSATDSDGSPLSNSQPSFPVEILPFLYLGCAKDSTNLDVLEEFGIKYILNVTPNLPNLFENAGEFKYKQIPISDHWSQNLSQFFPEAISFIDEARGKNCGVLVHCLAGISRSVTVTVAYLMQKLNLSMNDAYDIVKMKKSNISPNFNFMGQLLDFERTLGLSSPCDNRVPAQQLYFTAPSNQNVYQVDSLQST

[15] = cytotoxicity toward NIH3T3 fibroblasts, dose response, counter-screen, cell-based, ATP luminescence, mouse fibroblasts (AID 2010); format: functional;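 further: cells exposed to compound for about 90 hours before reading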
[16] = inhibitors of intracellular T. cruzi replication, confirmation, NIH3T3 host cells, beta-gal luminescence (AID 2044); format: functional, cell-based;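 further: intracellular parasites grown in NIH/3T3 mouse fibroblasts as host cells; luminescent beta-galactosidase reporter signal from transgenic T. cruzi replicating inside host cells; inhibitors lower the luminescence signal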
[17] = molecular target: T6, Calpain-2 catalytic subunit (Sus scrofa, UniProt P43367); assay: pig calpain II inhibitor potency, dose response, biochemical, fluorogenic peptide substrate (AID 1420); format: functional
T6 sequence (P43367 whole entry): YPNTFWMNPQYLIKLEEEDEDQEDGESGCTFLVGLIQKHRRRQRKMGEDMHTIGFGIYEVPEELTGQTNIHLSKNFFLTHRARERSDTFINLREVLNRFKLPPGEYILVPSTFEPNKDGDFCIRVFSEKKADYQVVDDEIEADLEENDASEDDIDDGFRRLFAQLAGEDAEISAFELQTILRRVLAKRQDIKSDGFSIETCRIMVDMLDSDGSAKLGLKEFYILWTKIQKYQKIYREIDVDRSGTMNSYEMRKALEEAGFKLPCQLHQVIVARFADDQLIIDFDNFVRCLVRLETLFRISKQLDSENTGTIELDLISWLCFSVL

[18] = molecular target: T7, Replicative DNA helicase DnaB (Mycobacterium tuberculosis, UniProt P9WMR3); assay: DnaB intein splicing inhibitors, dose response, biochemical, cell-free fluorescence (AID 449749); format: functional
T7 sequence (P9WMR3 whole entry): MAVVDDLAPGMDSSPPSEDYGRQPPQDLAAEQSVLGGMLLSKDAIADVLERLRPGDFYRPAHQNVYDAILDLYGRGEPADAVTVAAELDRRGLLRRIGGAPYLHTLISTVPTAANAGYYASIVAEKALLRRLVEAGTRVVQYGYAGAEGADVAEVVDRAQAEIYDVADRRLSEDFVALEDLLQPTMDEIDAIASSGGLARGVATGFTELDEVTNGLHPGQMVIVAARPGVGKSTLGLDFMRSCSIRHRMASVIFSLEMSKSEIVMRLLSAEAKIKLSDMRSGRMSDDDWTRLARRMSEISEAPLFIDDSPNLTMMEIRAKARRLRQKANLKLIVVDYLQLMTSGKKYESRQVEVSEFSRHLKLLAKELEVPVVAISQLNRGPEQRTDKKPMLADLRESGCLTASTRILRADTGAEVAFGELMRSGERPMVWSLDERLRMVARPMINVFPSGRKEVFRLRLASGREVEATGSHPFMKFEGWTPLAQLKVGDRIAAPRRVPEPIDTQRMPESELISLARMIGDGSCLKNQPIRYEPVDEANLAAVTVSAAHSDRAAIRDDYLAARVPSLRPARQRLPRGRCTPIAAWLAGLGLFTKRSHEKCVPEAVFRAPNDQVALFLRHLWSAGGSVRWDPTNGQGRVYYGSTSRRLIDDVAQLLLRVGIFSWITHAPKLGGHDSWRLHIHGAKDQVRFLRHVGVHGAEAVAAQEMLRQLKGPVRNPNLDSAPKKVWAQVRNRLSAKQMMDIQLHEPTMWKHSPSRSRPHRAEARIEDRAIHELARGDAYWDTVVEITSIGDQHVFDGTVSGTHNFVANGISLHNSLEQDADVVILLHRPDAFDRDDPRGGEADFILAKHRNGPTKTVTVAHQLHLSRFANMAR

Protein RecA = molecular target: T8, Protein RecA (Mycobacterium tuberculosis, UniProt P9WHJ3); assay: Fluorescence Cell-Free Homogeneous Dose Retest to Identify Inhibitors of RecA-Intein Splicing Activity. [Related pubchem assays (depositor defined):AID2097, AID2223, AID489010, AID492950]; format: functional
T8 sequence (P9WHJ3 whole entry): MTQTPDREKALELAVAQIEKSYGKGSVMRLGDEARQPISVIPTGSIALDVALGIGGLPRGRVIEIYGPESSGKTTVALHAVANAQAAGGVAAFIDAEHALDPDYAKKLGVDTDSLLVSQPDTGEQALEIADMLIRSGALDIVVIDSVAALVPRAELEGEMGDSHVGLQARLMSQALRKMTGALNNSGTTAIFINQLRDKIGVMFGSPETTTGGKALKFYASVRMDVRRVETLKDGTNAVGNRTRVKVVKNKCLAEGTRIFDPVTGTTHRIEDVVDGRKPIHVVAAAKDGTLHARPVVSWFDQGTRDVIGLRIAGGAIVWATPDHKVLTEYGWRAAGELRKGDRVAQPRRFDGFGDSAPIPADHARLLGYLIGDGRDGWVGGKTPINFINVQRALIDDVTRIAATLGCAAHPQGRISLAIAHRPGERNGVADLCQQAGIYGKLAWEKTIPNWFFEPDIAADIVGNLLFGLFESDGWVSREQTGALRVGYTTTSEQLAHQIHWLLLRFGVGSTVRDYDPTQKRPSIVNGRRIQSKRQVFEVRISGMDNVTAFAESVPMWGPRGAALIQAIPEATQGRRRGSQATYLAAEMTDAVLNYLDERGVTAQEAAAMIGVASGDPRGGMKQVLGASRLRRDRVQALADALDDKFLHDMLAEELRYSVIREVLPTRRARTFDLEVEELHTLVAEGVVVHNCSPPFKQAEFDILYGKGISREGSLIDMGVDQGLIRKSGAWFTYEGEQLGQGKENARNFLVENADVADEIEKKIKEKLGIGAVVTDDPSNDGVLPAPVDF

[19] = Intein inhibitors as potential Tuberculosis drugs, a cytotoxicity screen. [Related pubchem assays (depositor defined):AID2221, AID2223, AID434968, AID435010, AID449749, AID449750, AID489010]; format: functional
[20] = molecular target: T9, Kappa-type opioid receptor (Homo sapiens, UniProt P41145); format: functional
T9 sequence (P41145 whole entry): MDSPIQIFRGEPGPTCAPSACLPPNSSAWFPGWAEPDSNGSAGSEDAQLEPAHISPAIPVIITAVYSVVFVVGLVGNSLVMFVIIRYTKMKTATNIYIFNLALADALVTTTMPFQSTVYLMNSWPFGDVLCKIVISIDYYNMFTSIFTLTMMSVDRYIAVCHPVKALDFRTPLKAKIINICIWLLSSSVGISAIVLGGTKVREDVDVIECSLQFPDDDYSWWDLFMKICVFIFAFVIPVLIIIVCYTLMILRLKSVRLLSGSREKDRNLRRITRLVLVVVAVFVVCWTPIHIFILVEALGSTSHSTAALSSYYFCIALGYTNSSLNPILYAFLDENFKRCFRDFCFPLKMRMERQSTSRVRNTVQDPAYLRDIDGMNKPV

cells [21] = format: functional, cell-based
cells [22] = format: functional, cell-based; remark: listed apart in the source
[23] = molecular target: Luciferin 4-monooxygenase (Photinus pyralis, UniProt P08659); assay: firefly luciferase enzyme inhibitors, dose response, biochemical, luminescence (AID 1891)
Beta-galactosidase = Beta-galactosidase (Escherichia coli, UniProt Q8VNN2); format: functional
[24] = molecular target: T9, Kappa-type opioid receptor; format: functional; remark: listed apart in the source
INS1 = assay: beta cell apoptosis inhibitors, cytokine rescue, dose response, luminescence, retest (AID 449756); format: functional, cell-based; conditions: Rattus norvegicus;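 further: cell death triggered by IL-1 beta plus TNF-alpha plus IFN-gamma mixture; protective hits raise ATP signal compared with cytokine alone wells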
[25] = Luminescence Cell-Based Dose Confirmation HTS to Identify Inhibitors of Platelet Dense Granule Release. [Related pubchem assays: 1663 (Primary HTS), 1678 (Summary of Project)]; format: functional

Q: Which EC50 (Streptococcus) does the source give for `O=C(Nc1nnc(-c2ccccc2Cl)o1)c1ccc(S(=O)(=O)N2CCCCCC2)cc1` here?
A: 793 nM (active)

Q: And the IC50 (cells [1])?
A: 14.2 µM (active)

Q: And the CC50 [2]?
A: 7.66 µM (active)

Q: And the Ki (fMet-Leu-Phe receptor)?
A: > 66.7 µM (inactive)

Q: And the CC50 [3]?
A: 3.49 µM (active)

Q: And the CC50 [4]?
A: 4.8 µM (active)

Q: And the EC50 [5]?
A: 266 nM (active)

Q: Which IC50 (Hexokinase) does the source give for `CC(C)(C)c1ccc(C(=O)Nc2cc(Cl)c(Br)cc2C(=O)O)cc1` here?
A: 0.976 µM (active)

Q: Which AC50 (CAAX prenyl protease 2) does the source give for `Cc1cccc2sc(N(CCN(C)C)C(=O)c3ccc4ccccc4c3)nc12` here?
A: > 100 µM (inactive)

Q: With `O=C(Nc1ccncc1NC(=O)c1cccc([N+](=O)[O-])c1)c1cccc([N+](=O)[O-])c1` as the compound, how does the IC50 [6] read?
A: 18.9 µM (active)

Q: And the IC50 [7]?
A: > 50 µM (inactive)

Q: With `Cc1c(/N=N/c2c(-c3ccc([N+](=O)[O-])cc3)[nH]n(C(N)=S)c2=O)cccc1[N+](=O)[O-]` as the compound, how does the IC50 [8] read?
A: 1.71 µM (active)

Q: What about the IC50 [9] of the same compound?
A: > 66 µM (inactive)

Q: What about the IC50 [10] of the same compound?
A: 6.05 µM (active)

Q: What about the IC50 [11] of the same compound?
A: 50 µM (inactive)

Q: What about the IC50 [12] of the same compound?
A: 3.37 µM (active)

Q: And the IC50 [6]?
A: 16.3 µM (active)

Q: What about the IC50 [13] of the same compound?
A: > 66 µM (inactive)

Q: And the IC50 [14]?
A: 7.01 µM (active)

Q: And the IC50 [7]?
A: > 50 µM (inactive)

Q: Which IC50 (Hexokinase) does the source give for `OB1OCc2cc(C(F)(F)F)ccc21` here?
A: > 25 µM (inactive)

Q: Which EC50 [15] does the source give for `CC(C)(C)C1CCc2sc(C(=O)NNC(=O)CCl)cc2C1` (centres undefined) here?
A: > 60 µM (inconclusive)

Q: And the EC50 [16]?
A: 1.75 µM (active)

Q: And the IC50 [17]?
A: 3.86 µM (active)

Q: And the AC50 [18]?
A: 4.29 µM (active)

Q: What about the EC50 (Protein RecA) of the same compound?
A: 1.47 µM (active)

Q: What about the CC50 [19] of the same compound?
A: 3.58 µM (active)

Q: Which results are given for `COc1ccc(C(=O)Nc2ccccc2C(=O)N/N=C/c2ccccn2)cc1OC`?
A: IC50 [20]: 7.91 µM (active); EC50 (cells [21]): 16.6 µM (active); EC50 (cells [22]): 8.88 µM (active); IC50 (cells [1]): 36.9 µM (active); EC50 [23]: 1.3 µM (active); EC50 (Beta-galactosidase): > 31.5 µM (inactive); CC50 [2]: 14.3 µM (active); IC50 [24]: > 32 µM; CC50 [3]: 5.29 µM (active); CC50 [4]: > 20 µM (active); AC50 (INS1): 2.45 µM (active); EC50 [25]: 298 nM (active)
